# Like-named read-outs stand apart in the source and are kept apart here.
# Assays:
# [1] = cited from earlier work; for Cmax / Tmax / oral bioavailability: humans, orally administered 50 mg tablet, Yanagihara et al. 2003
# In vivo Dog PK Studies = conditions: for AUC(0-last) / Cmax: S-ketamine in blood
# Experimental: In vivo Dog PK Studies: Three male Beagle dogs were housed individually. Dogs in the oral administration groups were fasted overnight before treatment but with free access to water. Dogs in the IV groups had free access to food and water. For S-ketamine HCl salt, a single dose of […] was administered to each dog via intravenous (IV) administration. The vehicle used for S-ketamine HCl salt was saline. For other test compounds, a single dose of each test compound was administered to each dog via oral gavage (n=3/group). The vehicles used for dosing the test compounds were dependent on the properties of the test compound. Blood samples were collected at specified time-points (pre-dose, 10 min, 30 min, 1 h, 2 h, 3 h, 4 h, 5 h, 6 h, 8 h, post-dose) following administration to individual dogs within IV and PO group. To prevent compound degradation, drawn blood samples were immediately mixed in a ratio of 1:3 (v/v) with acetonitrile (containing 0.1% formic acid). The de-proteinized samples were temporarily held in ice following by storing at −70° C. before bioanalysis. The concentrations of analytes in the blood were determined by LC-MS/MS. Various pharmacokinetic parameters were calculated using Phoenix™ WinNonlin® software. To quantify the bioconversion efficiency of the test compounds in the circulation system, the bioavailability of S-ketamine after PO administration was calculated.
# (§1) Bio-Analysis: Samples were monitored for parent compound disappearance and ketamine formation in multi-reaction monitoring (MRM) mode by LC-MS/MS system. The mobile phase was performed at a constant flow rate of 0.8 mL/min using a binary solvent system: Solvent A, de-ionized water containing 0.10% formic acid, and Solvent B, methanol containing 0.10% formic acid. MRM data were acquired, and the chromatograms were integrated using Quant Wizard of the version 1.5.2 software (Analyst Software from ABI). A weighted (1/x or 1/x^2) linear regression was used to generate the calibration curve from standards and to calculate the sample concentrations.
# (§2) Pharmacokinetic Data Analysis: The pharmacokinetic parameters were estimated for each subject using the Phoenix™ WinNonlin program, version 6.3 (Phoenix WinNonlin© 2012, Pharsight Corporation, Mountain View, CA). Non-compartmental analysis was performed to generate parameter estimates. The terminal elimination rate constant (λ) was obtained, where possible, by linear regression of the terminal elimination phase of a log-linear plot of the blood concentration-time data. The criteria for λ acceptance were regression of at least three time points from the terminal elimination phase and r^2≥0.85. Half-life was defined as not determined (ND) if the criteria could not be met. Nominal time was used for t1/2 and AUC calculations. The apparent blood terminal elimination half-life (t1/2) was calculated according to the following formula: t1/2=ln(2)/λ. The observed maximum blood concentration (Cmax) and the time to reach the maximum blood concentration (Tmax) were obtained by visual inspection of the experimental data. The area under the blood concentration-time curve of ketamine from time 0 to the last measurable concentration (AUC(0-Last)) was determined by the linear trapezoidal method. The area under the blood concentration-time curve from time 0 to infinity (AUC(0-∞)) was determined by AUC(0-Last)+CLast/λ, in which CLast was the concentration corresponding to the time point of last measurable concentration (TLast).
# [2] = Whole blood stability (ketamine formation), monkey; assay type: in vitro ADME; conditions: ketamine formed, S-ketamine = 100
# [3] = Whole blood stability (ketamine formation), rat; assay type: in vitro ADME; conditions: 3 μM, 37° C., up to 60 min, ketamine formed, S-ketamine = 100
# Experimental: Whole Blood Stability Assay: Test compounds were incubated in 37° C. pre-warmed rat whole blood at 3 μM (final acetonitrile concentration 1%) for up to 60 min at 37° C. One-hundred 100 μL aliquots of spiked sample solutions were taken at pre-defined time points (0 to 60 min) post incubation, and were immediately extracted by adding 5 volumes of extraction solvent and then centrifuged at 20,000×g for 5 min. The supernatant fractions were analyzed with LC-MS/MS for the amount of the test compound remaining and ketamine.
# In vivo Rat PK Studies = test: In vivo Rat PK Studies; design: species or system rats; conditions: oral; bioavailability with respect to S-ketamine; oral dose level 5 μmol/kg to 160 μmol/kg
# Experimental: (§3) In vivo Mouse/Rat PK Studies: Pharmacokinetic profiles of the test compounds were evaluated in mice and rats […] (S-ketamine or prodrugs) administration. The oral dose level was 5 μmol/kg to 160 μmol/kg administered at a volume of 10 mL/kg. Blood samples were collected from the facial veins using heparinated tubes at pre-dose and 0.05, 0.17, 0.5, 1, 2, 3, 4, 6, and 8 hours post-dose following intravenous administration, and withdrawn at pre-dose and 0.17, 0.5, 1, 2, 3, 4, 5, 6, and 8 hours post-dose following oral administration. In each mouse PK study, mice were sub-grouped for a sparse sampling strategy. Each mouse provided two blood samples at different collection times. Blood samples were collected from alternating groups of three mice per time point.
# (§4) Non-compartmental analysis was performed to generate parameter estimates.
# [4] = Whole blood stability (ketamine formation), human; assay type: in vitro ADME; conditions: ketamine formed, S-ketamine = 100
# [5] = Whole blood stability (ketamine formation), dog; assay type: in vitro ADME; conditions: ketamine formed, S-ketamine = 100
# [6] = Whole blood stability (ketamine formation), mouse; assay type: in vitro ADME; conditions: ketamine formed, S-ketamine = 100
# In vivo Mouse PK Studies = test: In vivo Mouse PK Studies; design: species or system mice; conditions: oral; bioavailability with respect to S-ketamine; oral dose level 5 μmol/kg to 160 μmol/kg
# Experimental: as §3, §4
# [7] = In vivo Monkey PK studies; conditions: for AUC(0-∞) / Cmax: S-ketamine in blood
# Experimental: The de-proteinized samples were temporarily held in ice following by storing at −70° C. before bioanalysis.
# as §1, §2
# [8] = oral, bioavailability with respect to S-ketamine (Table 5 summary)
smiles,measurement,setting,value
CN[C@@]1(c2ccccc2Cl)CCCCC1=O [(R)-ketamine],Cmax,[1],about 41 ng/mL
same,Tmax,[1],about 31 min
same,oral bioavailability,[1],about 18%
"CNC1(c2ccccc2Cl)CCCCC1=O (centres unmarked) [Ketamine, 2-(2-chiorophenyl)-2-(methylamino)cyclohexan-1-one]",oral bioavailability in humans (% F),[1],about 20%
CN[C@]1(c2ccccc2Cl)CCCCC1=O [S-ketamine],AUC(0-last),"In vivo Dog PK Studies; dogs, IV @3.75 μmol/kg",0.244 µM·h
same,Cmax,"In vivo Dog PK Studies; dogs, IV @3.75 μmol/kg",669 nM
same,AUC(0-last),"In vivo Dog PK Studies; dogs, PO 15 μmol/kg",0.017 µM·h
same,Cmax,"In vivo Dog PK Studies; dogs, PO 15 μmol/kg",9 nM
same,F,"In vivo Dog PK Studies; dogs, PO 15 μmol/kg, bioavailability of S-ketamine",1.8%
same,Dog F,In vivo Dog PK Studies; [8],1.8%
same,Monkey Ket (%),[2],100%
same,Rat Ket (%),[3],100%
same,Rat F,In vivo Rat PK Studies,4.9%
same,Human Ket (%),[4],100%
same,Dog Ket (%),[5],100%
same,Cmax,[1],about 41 ng/mL
same,Tmax,[1],about 31 min
same,oral bioavailability,[1],about 18%
same,Mouse Ket (%),[6],100%
same,Mouse F,In vivo Mouse PK Studies,5.6%
same,AUC(0-∞),"[7]; monkeys, IV @5 μmol/kg",2.325 µM·h
same,Cmax,"[7]; monkeys, IV @5 μmol/kg",1200 nM
same,AUC(0-∞),"[7]; monkeys, PO @10 μmol/kg",0.034 µM·h
same,Cmax,"[7]; monkeys, PO @10 μmol/kg",13 nM
same,F,"[7]; monkeys, PO @10 μmol/kg, bioavailability of S-ketamine",0.7%
same,Monkey F,[7]; [8],0.7%
